Entries after “also recorded” stand apart in the source; their conditions may differ. Like-named read-outs stand apart in the source and are kept apart here.
Assays:
HepG2 cells [1] = assay: Trypan blue exclusion test, tumour cells; format: cell-based; details: HepG2, 50 µM/L, p < 0.01 vs. control; for Viable cells vs. control (trypan blue exclusion): 24 h exposure; for Cytotoxicity / cell viability vs. control (trypan blue exclusion): 72 h exposure
Experimental: (§1) CHO-K1 and HepG2 cells were seeded into 6-well plates (Sarstedt, Numbrecht, Germany) at a density of 2 × 10^4 cells/well and then incubated for 24 h. The cell monolayers were washed with PBS solution (Sigma-Aldrich) and medium in each well was replaced with a new one, with addition of 50 µM/L of tested compound. Then, the cells were incubated in standard conditions for 24, 48 or 72 h. The cells cultured in the medium with addition of 1% v/v DMSO (Sigma-Aldrich) were positive controls (100% of growth). After incubation, the cells were detached using Trypsin-EDTA solution (Life Technologies) and suspended in buffered PBS (Sigma-Aldrich). Trypan Blue Exclusion dye (0.4% v/v, Sigma-Aldrich, Germany) was added to each cell culture and samples were kept at room temperature for 5 min. Then, the numbers of live cells (unstained) and dead cells (blue) in each population exposed to tested chemicals/dissolvent were measured with an automatic cell counter.

CHO-K1 cells [2] = assay: Cell growth assessment (cell counting), noncancerous cells; format: cell-based; details: CHO-K1, 50 µM/L, 72 h incubation
Experimental: (§2) For experiments, the cells were seeded at low density (3 × 10^3/mL) into the 6-well plates (Sarstedt, Numbrecht, Germany) and kept for 24 h. Then, the medium was replaced for new one, containing 50 µM/L of tested compound or 1% v/v of DMSO (control). The time points of incubations were set at 24, 48 or 72 h. At the end of each experiment, the cells were gently detached with Trypsin-EDTA solution (Life Technologies), suspended with appropriate growth medium with addition of 10% v/v FBS and centrifuged at 350× g for 5 min. Finally, the cells were suspended in buffered PBS (Sigma-Aldrich) and counted.

Hep G2 cells [3] = assay: Antiproliferative MTT assay, tumour cells; format: cell-based; details: for IC50: MTT assay, 72 h exposure, M ± SD, n = 3, read-out: IC50 for Cancer HEP G2 Cells
CHO-K1 cells [4] = assay: Trypan blue exclusion test, noncancerous cells; format: cell-based; details: CHO-K1, 50 µM/L, 24 h exposure, p < 0.05 vs. control
Experimental: as §1

[5] = system: Glutathione Peroxidase (GPx); assay: Extracellular glutathione peroxidase activity in CHO-K1 culture medium; format: cell-based
Experimental: (§3) Glutathione peroxidase (GPx) activity was assayed spectrophotometrically in culture medium and enzyme function against reactive oxygen species was investigated according to Adachi et al., Comhair et al. and Howie et al. with modification of Zagrodzki, using hydrogen peroxide (H2O2) as a substrate. For experiment, cell cultures of CHO-K1 and Hep G2 cells were established with initial density of the cells as 2 × 10^4 cells/well. Then, the cells were exposed to 50 µM/L of each chemical for 24 h (control cells were incubated with 1% v/v of DMSO) and cell media were collected. Briefly, the samples were incubated with mixture of sodium azide, glutathione reductase, glutathione, reduced β-nicotinamide adenine dinucleotide phosphate (NADPH) and sodium phosphate (pH 7.6) for 2 min at 25 °C and the reaction was initiated by the addition of H2O2. NADPH was converted to NADP and the amount of the product was proportional to GPx activity. The decrease in absorbance at 340 nm over 3 min was recorded using a microplate reader Infinite M200 Pro, Tecan, Austria. The mean value was calculated and expressed as U/L of the cell culture medium.

[6] = system: vascular endothelial growth factor a (VEGFa) mRNA; assay: Real-Time PCR (qPCR) gene expression in Hep G2 cells, VEGFa; format: cell-based, human; details: Hep G2, 50 μM/L, 24 h, normalized to GAPDH
Experimental: (§4) Hep G2 cells were used to establish cell cultures (2 × 10^4 cells/well). After 24 h of incubation with chemicals at concentration of 50 µM/L or with 1% v/v DMSO (control), the cells were suspended in RL buffer (EURx, Gdansk, Poland) and the total RNA was extracted using Universal RNA purification Kit (EURx, Gdansk, Poland), according to the manufacturer’s protocol. For cDNA synthesis, MMLV reverse transcriptase (Promega, Madison, WI, USA) was used. The reverse transcription reaction was performed with ProFlex PCR System (Applied Biosystems, Foster City, CA, USA). The QuantStudio 7 Flex (Applied Biosystems, Foster City, CA, USA) was employed for the real-time PCR (qPCR). The following Taq-Man human probes (Applied Biosystems) were used for qPCR reaction: VEGFA (Hs00173626_m1), VIM (001855284_m1), MMP-2 (Hs00234422_m1), MMP-9 (Hs00234579_m1) and GAPDH (Hs99999905_m1). Blank qPCR Master Mix (EURx) was used according to the manufacturer’s instructions. Expression data were normalized on the mean housekeeping gene (GAPDH) as a reference. mRNA expressions were obtained with the 2^−ΔΔCt method and relative expression values were presented, as previously published.

Hep G2 cells [7] = assay: Apoptosis and necrosis detection by flow cytometry, tumour cells; format: cell-based; details: Hep G2, 50 µM/L, 24 h, Annexin V/EthD-III flow cytometry
Experimental: (§5) For flow cytometry analyses, CHO-K1 and Hep G2 cells were plated in triplicates into 6-well plates (Sarstedt) at a density of 2 × 10^4 cells per well. The cells were treated for 24 h with tested complexes/comparator salts at concentration of 50 µM/L. Control cells were exposed to DMSO (1% v/v)for 24 h. Then, the cells were detached using Trypsin-EDTA solution, washed with buffered PBS (Lonza, Walkersville, MD, USA), centrifuged at 350× g for 5 min and suspended in binding buffer. Flow cytometry analysis was performed according to the manufacturer’s instructions (Biotium, Hayward, CA, USA). Fluorescent dyes, 488-AnnexinV (excitation maximum at 490 nm/emission maximum at 515 nm) and/or Ethidium homodimer (EthD-III; excitation maximum at 528 nm/emission maximum at 617 nm) were added to cell suspensions. To correct discrimination between cells and debris, SYTO 41 Blue Fluorescent Nucleic Acid Stain was used (excitation maximum at […]). The cells were incubated in dark for 15 min with appropriate dye/dyes and analysed using flow cytometer FACSCanto10C with BD FACSDiva 8.1 System Software (BD Biosciences Immunocytometry Systems, San Jose, CA, USA). The cells were gated according to forward (FSC), side scatter (SSC) and fluorescence parameters (FITC channel was used for 488-AnnexinV and Texas Red channel was used for EthD-III). The results are given as the percentage of apoptotic or necrotic cells of total counted cells.

CHO-K1 cells [8] = assay: Antiproliferative MTT assay, noncancerous cells; format: cell-based; details: 72 h exposure, M ± SD, n = 3
CHO-K1 cells [9] = assay: Apoptosis and necrosis detection by flow cytometry, noncancerous cells; format: cell-based; details: CHO-K1, 50 µM/L, 24 h, Annexin V/EthD-III flow cytometry
Experimental: as §5

[10] = system: matrix metalloproteinase-2 (MMP-2) mRNA; assay: Real-Time PCR (qPCR) gene expression in Hep G2 cells, MMP-2; format: cell-based, human
Experimental: as §4

[11] = system: matrix metalloproteinase-9 (MMP-9) mRNA; assay: Real-Time PCR (qPCR) gene expression in Hep G2 cells, MMP-9; format: cell-based, human
Experimental: as §4

CHO-K1 cells [12] = details: read-out: IC50 for Noncancerous CHO-K1 Cells, cited from earlier work
[13] = system: Glutathione Peroxidase (GPx); assay: Extracellular glutathione peroxidase activity in Hep G2 culture medium; format: cell-based; details: HepG2 culture medium, 50 μM/L, 24 h
Experimental: as §3

Hep G2 cells [14] = system: Hep G2 cells; design: method as in doi:10.1039/C6RA06439F; details: read-out: IC50 for Cancer HEP G2 Cells, cited from earlier work
vimentin (Vim) mRNA = assay: Real-Time PCR (qPCR) gene expression in Hep G2 cells, vimentin; format: cell-based, human; details: Hep G2, 50 μM/L, 24 h, normalized to GAPDH
Experimental: as §4

HepG2 cells [15] = assay: Cell growth assessment (cell counting), tumour cells; format: cell-based; details: HepG2, 50 µM/L, 72 h incubation
Experimental: as §2

[16] = CHO-K1 culture medium, 50 μM/L, 24 h
[17] = Hep G2, 50 μM/L, 24 h, normalized to GAPDH
[18] = MTT assay, 72 h exposure, M ± SD

Structure (SMILES)	Viable cells vs. control (trypan blue exclusion) (HepG2 cells [1])	Cytotoxicity / cell viability vs. control (trypan blue exclusion) (HepG2 cells [1])	Antiproliferative Index IC50 CHO-K1/IC50 HEP G2 (Hep G2 cells [3])	IC50 (Hep G2 cells [3])	Viable cells vs. control (trypan blue exclusion) (CHO-K1 cells [4])	GPx activity vs. control [5, 16]	VEGFa mRNA expression vs. control [6]	Necrosis (Hep G2 cells [7])	IC50 (CHO-K1 cells [8])	Cell death (apoptosis/necrosis) (CHO-K1 cells [9])	MMP-2 mRNA expression vs. control [10, 17]	Antiproliferative Index IC50 CHO-K1/IC50 HEP G2 (Hep G2 cells [3]; ratio of MTT IC50 values, 72 h)	MMP-9 mRNA expression vs. control [11, 17]	GPx activity vs. control [13]	Apoptosis (Hep G2 cells [7])	Vim mRNA expression vs. control (vimentin (Vim) mRNA)	other results
Cc1cc(C)n(CNCn2nc(C)cc2C)n1.[Co+2].[N-]=C=S.[N-]=C=S [Complex 2, [CoL^D(NCS)2]]	statistically significant decrease in viable cells	statistically significant toxic effect	7.0	38.2 ± 5 µM	statistically significant decrease in viable cells	elevated the enzyme activity	significantly hampered VEGFa expression	caused mainly necrotic cell death	268 ± 15 µM	minor	–	–	–	–	–	–	Cell growth vs. control (CHO-K1 cells [2]): lowest inhibitory potency
O=S(=O)([O-])[O-].[O]=[V+2] [VOSO4, reference compound]	–	–	–	75.6 ± 8 µM	–	–	–	–	–	–	did not exert any effect	1.3	did not exert any effect	elevated the enzyme activity	much weaker than complex 3	–	IC50 (CHO-K1 cells [12]; [18]): 98.3 ± 9 µM
[Cl-].[Cl-].[Co+2] [CoCl2]	–	–	1.1	–	–	–	–	–	–	–	–	–	–	–	–	–	IC50 (Hep G2 cells [14]): 160 µM; MMP-2 mRNA expression vs. control [10]: decreased mRNA for MMP-2; MMP-9 mRNA expression vs. control [11]: did not changed transcript level for MMP-9; IC50 (CHO-K1 cells [12]): 176 µM; GPx activity vs. control [5]: did not exert any effect
Cc1cc(C)n(CNCn2nc(C)cc2C)n1.Cc1ccccc1.[N-]=C=S.[N-]=C=S.[O]=[V+2] [Complex 3, [VOL^D(NCS)2]∙C6H5CH3]	statistically significant decrease in viable cells	statistically significant toxic effect	–	45.6 ± 5 µM	statistically significant decrease in viable cells	did not disturb antioxidant enzyme activity	significantly hampered VEGFa expression	–	123 ± 3 µM	minor	greatest inhibitory effect	2.7	greatest inhibitory effect	decreased GPx activity	most active promotor of apoptosis	decreased Vim expression	–
CO.Cc1cc(C)n(CNCn2nc(C)cc2C)n1.Cc1cc(C)n(CNCn2nc(C)cc2C)n1.[Co+2].[I-].[I-] [Complex 1, [Co(L^D)2]I2∙CH3OH]	statistically significant decrease in viable cells	statistically significant toxic effect; also recorded: greatest decrease in Hep G2 cell viability	–	22 ± 4 µM	statistically significant decrease in viable cells	elevated the enzyme activity	significantly hampered VEGFa expression	caused mainly necrotic cell death	122 ± 10 µM	minor	–	5.5	–	–	–	decreased Vim expression	Cell growth vs. control (HepG2 cells [15]): greatest inhibitory effect
N.N.[Cl][Pt][Cl] [Cisplatin, cisplatin, reference compound]	–	–	–	–	–	–	–	–	19.1 ± 2 µM	–	–	0.9	–	–	–	–	IC50 (Hep G2 cells [14]; [18]): 21.3 ± 2 µM

From paper PMC7917659, “Selective Cytotoxicity of Complexes with N,N,N-Donor Dipodal Ligand in Tumor Cells” (International Journal of Molecular Sciences, 2021)
